Source: US10624828B2, “Personal care compositions comprising a 2-pyridinol N-oxide material and an iron chelator” (The Procter & Gamble Company, priority 2017, dated 2020)
Marks after values point to notes of the source that are not given here.

Columns and labels:
[1] = NIST Standard Reference Database 46; cited from earlier work
[2] = system: Staphylococcus aureus ATCC 6538; assay: Minimum Inhibitory Concentration (MIC), broth dilution, visual pellet reading; type: cell-based; details: S. aureus ATCC 6538, material alone, 37° C., 24 hours, average of triplicates
Method: The minimum inhibitory concentration (“MIC”) is the concentration (in ppm) of anti-bacterial agent that causes growth inhibition of bacteria so that no pellet is formed in the culture medium (as explained below in the method). […] Staphylococcus aureus ATCC 6538 is cultured onto tryptic soy agar (TSA) (Oxoid CM0131) over 24 hours. […] This gives 5×10^5 cfu/mL. […] The plate is then placed into a plastic sheet to minimize evaporation. The plate is then incubated at 37° C. for 24 hours. After 24 hours, the plate is removed and read visually to determine if a pellet is formed at the bottom of the well versus positive (without adding antibacterial material) and negative (without bacterial inoculum) growth controls. […] The experiment is carried out in triplicates and the MIC values are determined by the average of the results.

[3] = system: Staphylococcus aureus ATCC 6538; assay: Combinatorial Minimum Inhibitory Concentration (cMIC), OD 620 nm; details: for MIC: minimum amount of chelant at which there is no bacteria growth: chelator alone (0 ppm piroctone olamine)
Method: A Combinatorial Minimum Inhibitory Concentration (“cMIC”) is used to determine the combinatorial effects of two chemicals on anti-bacterial activity in a tissue culture setting. Herein, the cMIC is a measure of the Minimum Inhibitory concentrations of 1-hydroxy-4-methyl-6-(2,4,4-trimethylpentyl)-2-pyridone monoethanolamine salt in combination with a chelant or vice versa.
Method Overview: • a. Each cMIC assay is run in triplicates. • b. Staphylococcus aureus ATCC 6538 is cultured on tryptic soy agar (TSA) (Oxoid CM0131) over 24 hours. The single colonies are then transferred into saline and mixed through vortex to obtain an optical density (OD) of 0.08-0.13 at 620 nm. 200 uL of this bacterial suspension is added to 19.8 mL of Mueller Hinton Broth (MHB) (BD 212322). This gives 5×10^5 cfu/mL. 100 uL of this bacteria-MHB mix is added to a 96 well flat-bottomed plate (TRP 92196). • c. 1-hydroxy-4-methyl-6-(2,4,4-trimethylpentyl)-2-pyridone monoethanolamine salt is pipetted into the wells in varying concentrations as indicated below. • d. Different Chelants are pipetted into the wells in varying concentrations, as indicated below. • e. The plates are then read using a spectrophotometer at 620 nm. This is the 0-hour reading. • f. The plates are incubated at 37° C. for 18 hours with shaking at 50 rpm. • g. The optical density of the plate is then measured using a spectrophotometer at 620 nm. • h. The OD value is calculated as subtraction of the readings between 18-hour and the 0-hour. • i. cMIC is determined as the minimal concentration of 1-hydroxy-4-methyl-6-(2,4,4-trimethylpentyl)-2-pyridone monoethanolamine salt in combination with a chelant or vice versa, corresponding to the well whose OD value is less than 10% of the OD value of the control well without 1-hydroxy-4-methyl-6-(2,4,4-trimethylpentyl)-2-pyridone monoethanolamine salt and chelator (full growth).

[4] = 3.125 ppm piroctone olamine combined with chelator (62.5 ppm DTPMP or 250 ppm DTPA), (MIC − cMIC)/MIC x 100%
[5] = 6.25 ppm piroctone olamine combined with chelator (15.6 ppm DTPMP or 125 ppm DTPA)
[6] = 6.25 ppm piroctone olamine combined with chelator (15.6 ppm DTPMP or 125 ppm DTPA), (MIC − cMIC)/MIC x 100%
[7] = in the presence of 3.125 ppm piroctone olamine
[8] = in the presence of 6.25 ppm piroctone olamine

Row | MIC (ppm) [2] | MIC: minimum amount of chelant at which there is no bacteria growth [3] | Structure (SMILES) | Log K1 (iron binding affinity) [1] | Antibacterial Efficiency of piroctone olamine boosted by Chelator [3, 4] | boost of antibacterial efficacy of piroctone olamine alone (fold) [3, 5] | Antibacterial Efficiency of piroctone olamine boosted by Chelator [3, 6] | cMIC: minimum amount of chelant at which there is no bacteria growth in the presence of piroctone olamine [3, 7] | cMIC: minimum amount of chelant at which there is no bacteria growth in the presence of piroctone olamine [3, 8] | other results
1 | 500 ppm | 500^# ppm | O=C(O)CN(CCN(CC(=O)O)CC(=O)O)CCN(CC(=O)O)CC(=O)O [DTPA, diethylenetriaminepentaacetic acid] | 28 | 75% | 2 fold | 50% | 250^## ppm | 125^## ppm | 
2 | 250 ppm | 250^# ppm | O=P(O)(O)CN(CCN(CP(=O)(O)O)CP(=O)(O)O)CCN(CP(=O)(O)O)CP(=O)(O)O [DTPMP, Diethylenetriaminepentakis (methylenephosphonic acid)] | 23 | 75% | 2 fold | 50% | 62.5^## ppm | 15.6^## ppm | boost of antibacterial efficacy of piroctone olamine alone (fold) ([3]; 3.125 ppm piroctone olamine combined with chelator (62.5 ppm DTPMP or 250 ppm chelator)): 4 fold

Further lines, the compound ahead of its results:

Row | Structure (SMILES) | MIC (ppm) [2] | MIC: minimum amount of chelant at which there is no bacteria growth [3] | Log K1 (iron binding affinity) [1] | Antibacterial Efficiency of piroctone olamine boosted by Chelator [3, 4] | boost of antibacterial efficacy of piroctone olamine alone (fold) [3, 5] | Antibacterial Efficiency of piroctone olamine boosted by Chelator [3, 6] | cMIC: minimum amount of chelant at which there is no bacteria growth in the presence of piroctone olamine [3, 7] | cMIC: minimum amount of chelant at which there is no bacteria growth in the presence of piroctone olamine [3, 8] | other results
3 | O=C(O)CC(O)(CC(=O)O)C(=O)O [Citric Acid] |  |  | 11 |  |  |  |  |  | 
4 | CC(C(=O)O)N(CC(=O)O)CC(=O)O (stereo not shown) [MGDA, Methylglycine diacetic acid] |  |  | 16 |  |  |  |  |  | 
5 | CC(=O)N(O)CCCCCNC(=O)CCC(=O)N(O)CCCCCNC(=O)CCC(=O)N(O)CCCCCN [Desferrioxamine, reference compound] |  |  | 31 |  |  |  |  |  | 
6 | Cc1cc(CC(C)CC(C)(C)C)n(O)c(=O)c1.NCCO (stereo not shown) [reference compound] |  |  |  |  |  |  |  |  | MIC ([2]; Staphylococcus aureus, ATCC6538): 12.5 µg/mL; Antibacterial Efficiency of piroctone olamine boosted by Chelator ([3]; 12.5 ppm piroctone olamine, 0 ppm chelator): 0; cMIC: minimum amount of piroctone olamine at which there is no bacteria growth in the presence of chelant ([3]; in the presence of 125 ppm DTPA): 6.25** ppm; cMIC: minimum amount of piroctone olamine at which there is no bacteria growth in the presence of chelant ([3]; in the presence of 250 ppm DTPA): 3.125** ppm; MICpiroctone olamine: minimum amount of the salt at which there is no bacteria growth ([3]; piroctone olamine alone (0 ppm chelator)): 12.5* ppm
